In patent US20260199284A1, “SPECIFIC VASH COMPOUNDS (SVC) INHIBITORS FOR HEART DISEASES” (MT ACT, priority 2023, published 2026):

Assays:
Carboxypeptidase A (CPA) = biological target: T1, Carboxypeptidase A (CPA) (Homo sapiens, UniProt P15085); test: Carboxypeptidase A in vitro assay (western blot); type: biochemical; conditions: selectivity control
T1 sequence (P15085 111-419): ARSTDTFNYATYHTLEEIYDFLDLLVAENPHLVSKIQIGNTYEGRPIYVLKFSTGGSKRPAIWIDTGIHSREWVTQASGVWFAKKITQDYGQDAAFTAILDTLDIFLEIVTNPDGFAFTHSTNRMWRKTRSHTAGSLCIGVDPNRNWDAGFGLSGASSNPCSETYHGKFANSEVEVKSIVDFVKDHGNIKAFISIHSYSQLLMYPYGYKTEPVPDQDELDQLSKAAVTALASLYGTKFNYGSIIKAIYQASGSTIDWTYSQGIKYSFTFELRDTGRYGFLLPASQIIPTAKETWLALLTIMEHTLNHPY
Excerpt: FIG. 6: In vitro detyrosination assays using recombinant human enzymes in absence or presence of SVC_01 or BzISA (specific carboxypeptidase A inhibitor). […] Reactions were stopped using SDS-page laemli buffer and loaded for western blotting using specific antibodies.
Below, the criteria for selection are detailed: • Protease with documented carboxypeptidase activity towards alpha tubulin. Carboxypeptidase A hydrolyzes peptide bonds of C-terminal residues with aromatic or aliphatic side-chains (FIG. 6). • Cysteine protease with preference for non-aromatic residues at P1′. The optimum recognition site for Human rhinovirus (HRV) type 14 3C protease is LEVLFQ/GP, with a glycine at the P1′ position (FIG. 7). • Cysteine protease with preference for aromatic residues at P1′ site. Alike VASH, cathepsin B prefers an aromatic residue at the P1′ position. This is considered to be our best control for specificity (FIG. 8)

ZSF1-Lean and Obese rats = test: Myocardial tubulin detyrosination after IV injection in ZSF1 rats (western blot, immunofluorescence); type: in vivo, rat; conditions: for detyrosinated tubulin in myocardial tissue (words): IV injections, 30 weeks old ZSF1 rats, western blot
Procedure: FIG. 23: immunofluorescence imaging to detect tubulin detyrosination on LV tissue and evaluate changes in the abundance of detyrosinated tubulin following SVC-02 treatment.
FIG. 24: Quantification of immunofluorescence imaging analysis performed on LV tissue to evaluate changes in microtubule density (SVC-02 as VASHi).
Formalin fixed paraffin embedded (FFPE) sections on glass slides were deparaffinized by sequential washes in xylenes, and decreasing concentrations of ethanol (100%, 95%, 75%, and 50%) followed by ddH2O. Slides were placed in 1× Reveal decloaking solution (Biocare Medical, Catalog #RV1000M) for antigen retrieval. Antigen retrieval was performed using a pressure cooker (Instant Pot Pro 10-in-1 pressure cooker, 8 Quart, Amazon.com) for 15 minutes at high pressure. After cooling, slides underwent a second round of antigen retrieval in 1× Antigen Unmasking Solution, Citric Acid Based (Vector Laboratories, Catalog #H-3300-250) in a pressure cooker for 15 minutes at high pressure. Next, the slides were washed in ddH2O, followed by PBS. The slides were permeabilized with PBS+0.25% Triton X-100, followed by incubation in fish serum blocking buffer (Thermo Scientific, Catalog #37527) containing 0.1% Tween 20 for 1 hour at RT.
Sections were co-stained with Mouse monoclonal (B-5-1-2) antibody to α-tubulin (Sigma-Aldrich, Catalog #T5168; 1:50) and Rabbit polyclonal detyrosinated α-tubulin antibody (ab48389 Lot #GR3425171; 1:50) in blocking buffer for 2 days at RT. Sections were washed in PBS containing 0.1% Tween 20 (PBST) and then incubated in goat anti-rabbit conjugated to Alexa Fluor 647 and goat anti-mouse conjugated to Alexa Fluor 568 secondary antibodies along with Alexa Fluor 488 conjugated WGA (Invitrogen Catalog #W11261; final concentration 25 μg/mL) in PBST for 2 days at RT. The sections were then stained with Hoechst 33342, Trihydrochloride, Trihydrate (Invitrogen Catalog #H3570, final concentration 10 μg/mL in PBS) and mounted in Prolong Diamond Antifade Mountant (Invitrogen Catalog #P36961).
Longitudinally oriented cardiomyocytes within the myocardium were identified. Four channel Z-stacks (4×500 nm slices) of myocardial regions were imaged using a 63× oil immersion objective (1.4 NA) on a Zeiss Airyscan 880 microscope with 18.3 nm×18.3 nm pixel size. The images were background subtracted and maximum intensity projections were generated in FIJI (NIH). Rectangular ROIs were blindly drawn within the cytosolic portion of individual cardiomyocytes, while excluding the nuclei and perinuclear regions, using the WGA and Hoechst channels. The α-tubulin and detyrosinated microtubule images were extracted from the ROIs. […] The microtubule density was calculated as the percent area coverage of the binary maps within each ROI. […]

inhibition of Carboxypeptidase A (Carboxypeptidase A (CPA))	SMILES	detyrosinated tubulin in myocardial tissue (words) (ZSF1-Lean and Obese rats)	detyrosinated tubulin in myocardial tissue (words) (ZSF1-Lean and Obese rats; listed as SVC-02)	reduction of tubulin detyrosination in heart tissue (ZSF1-Lean and Obese rats; lean and obese animals, 8 hours following intravenous injection)	density of detyrosinated-microtubules in LV tissue (ZSF1-Lean and Obese rats; obese animals, immunofluorescence, vs vehicle)
No cross reactions observed	O=C(O)CCC[C@H](NC(=O)[C@H]1O[C@@H]1C(=O)C[C@@H](Cc1ccc(OCc2ccccc2)cc1)C(=O)O)C(=O)NCCc1ccccc1 [SVC_01]				
	CCOC(=O)[C@H](Cc1ccc(OCC)cc1)NC(=O)[C@H]1O[C@@H]1C(=O)N[C@@H](Cc1ccc(OCC)cc1)C(=O)OCC [SVC_02]	efficient reduction in detyrosinated tubulin	significantly reduced detyrosinated tubulin abundance	about 60%	significant reduction in the density of detyrosinated-microtubules
